Reference: the METLIN SMRT retention time set (Domingo-Almenara et al. 2019)

Experiment: gradient 5% acetonitrile 3 min, to 50% in 2 min, to 85% in 15 min, held 3 min, 100 µL/min
Settings: column: Zorbax Extend-C18 2.1 x 50 mm; eluents: water / acetonitrile, 0.1% formic acid
Method in brief: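 Each retention time is based on an adduct peak selected computationally and verified by manual inspection. Measurements used HPLC–quadrupole time-of-flight mass spectrometry in positive and negative ionization mode on mixtures of ~100 pure standards. Chromatography ran on a Zorbax Extend-C18 column (2.1 × 50 mm, 1.8 μm) at 100 μL/min with water and acetonitrile, each containing 0.1% formic acid, and dead and dwell volumes of 40 μL and 900 μL.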

RP-LC retention time [s]	SMILES
968	Cc1ccc(F)c(NC(=O)C(C)C2CCN(C(=O)Nc3ccc(Cl)cc3)CC2)c1 (stereo not drawn)
1070	CCc1nc2cc(-c3noc(Cc4ccc(F)cc4)n3)ccc2o1
840	Cc1cc(C)cc(NC(=O)Cn2nc(N3CCOCC3)c3ccccc3c2=O)c1
540	Cc1ccc(Nc2nc(NCc3cccnc3)nc3[nH]ncc23)cc1
728	COc1ccc(-c2cn3c(CC(=O)Nc4ccccc4Cl)csc3n2)cc1OC
959	Cc1ccc(-n2c(N3CCCC(C(=O)NC(C)c4ccc(F)cc4)C3)nc3ccsc3c2=O)cc1 (stereo not drawn)
831	Cc1ccc(CN2CCN(CC(=O)Nc3nc(-c4ccc(C)c(C)c4)cs3)CC2)cc1
1030	O=C(COc1ccccc1-c1nnc(-c2ccccc2)o1)NCc1ccc2c(c1)OCO2
649	CCc1nnc2cc(N3CCN(C(=O)Nc4ccc(C)cc4)CC3)cnn12
942	Cc1cccc(-n2c(=O)c3c(cc(C)n3C)n(CC(=O)Nc3ccc(C)cc3Cl)c2=O)c1
660	CCN1CCn2c(nc3cc(C(=O)NCc4ccc5c(c4)OCO5)ccc32)C1=O
1080	COc1ccc(-c2nc(Cc3noc(-c4ccccc4F)n3)c(C)o2)cc1
680	COc1ccc(-c2nc3cccnc3n2C2CCN(C(=O)NCC(C)C)C2)cc1 (stereo not drawn)
787	COc1ccc(CC(=O)N2CCC3(CC2)NC(=O)c2ccc(Cl)cc2N3)cc1
726	Cc1nnc(N2CCCC(C(=O)NCCc3ccccc3)C2)c2nn(-c3ccccc3)c(C)c12 (stereo not drawn)
702	COc1ccc(-c2cn3c(CC(=O)NC4CCCCC4)csc3n2)cc1OC
699	COC(=O)c1cnc2nc(C)ccc2c1Nc1ccc(C)cc1C
698	COc1ccc(OC)c(NC(=O)Nc2c(-c3ccc(C)cc3)nc3ccccn23)c1
970	COc1ccc(-c2cc3nn(CC(=O)Nc4ccc(F)cc4Cl)c(=O)n3c(C)n2)cc1
830	CCOc1cc(-c2cccc(Cl)c2)nc2ccc(NC(=O)c3ccco3)cc12
645	Cc1cccc(OCCc2noc(C3CCCN3)n2)c1 (stereo not drawn)
774	Cc1ccc(NC(=O)c2c(C)oc3nc(C)nc(N4CCCC4)c23)cc1
917	COCCNc1c(-c2cccc(F)c2)nc2sc(C(=O)NC3CCCC3)c(C)n12

RP-LC retention time [s]	SMILES
618	Cc1nn(C)c(C)c1S(=O)(=O)N1CCC(n2c(C)cnc2-c2ccccc2)C1 (stereo not drawn)
816	Cc1cc(-c2nnc(C3CCC3)o2)c(C)n1CC(=O)NCc1ccc2c(c1)OCO2
850	CN(C(=O)c1ccc(F)cc1C(F)(F)F)C1CCN(c2nnc(-c3ccnn3C)c3ccccc23)CC1
780	Cc1csc(NC(=O)Cn2c(=O)n(C(C)C)c3ccc(-c4noc(C)n4)cc32)n1
892	Cc1cc(C)cc(NC(=O)N2CCC(n3cnc4c(Cl)cccc4c3=O)CC2)c1
678	Cc1ccc(CNc2nnc(N3CCOCC3)c3ccccc23)cc1
683	COc1ccc(-c2cc3n(n2)C(NC2CC2)CNC3=O)cc1 (stereo not drawn)
1070	Cc1nc2cc(-c3noc(Cc4cccc(Cl)c4)n3)ccc2o1
588	COc1cccc2c1OC1(C)CC2NC(=O)N1c1cccc(C(=O)N2CCN(c3ccccn3)CC2)c1 (stereo not drawn)
845	CCc1ccc(NC(=O)Cn2c(C)nc3onc(C)c3c2=O)cc1
1170	COc1ccc(CN2C=C(C(=O)OCc3noc(-c4ccc(C)cc4)n3)C(C)=NS2(=O)=O)cc1
844	COc1ccc(NS(=O)(=O)c2ccc3c(c2)C(=O)N(C)c2ncccc2O3)cc1
597	COc1ccc(CC(=O)Nc2c(-c3ccc(F)cc3)nc3ccccn23)cc1OC
728	Cc1cc(C)cc(NC(=O)N2CCC(c3cc(N)on3)CC2)c1
773	Cc1ccccc1S(=O)(=O)N1CCC(n2cnnc2-c2ccccc2)CC1
752	CCN1CCn2cc(S(=O)(=O)Nc3cc(C)ccc3C)cc2C1=O
1130	CCOc1ccc(-c2noc(CN3C(=O)COc4ccc(Cl)cc43)n2)cc1
1250	Cc1ccc(C2Cn3nnc(-c4nc(-c5ccc6c(c5)OCO6)no4)c3CO2)c(C)c1 (stereo not drawn)
1030	COc1ccc(-c2csc3c(=O)n(Cc4cccc(OC)c4)cnc23)cc1
828	Cc1ccc(CNC(=O)N2CCc3c(c(-c4nc(C5CC5)no4)nn3C)C2)cc1
832	Cc1cccc(CNC(=O)c2ncn3c2C(=O)N(C2CC2)C(C)(C(=O)NCc2cccc(C)c2)C3)c1 (stereo not drawn)
671	Cc1ccc(Nc2cc(-n3ccnc3)ncn2)cc1C

The remaining lines, values behind:

SMILES	RP-LC retention time [s]
O=C(CN1C(=O)C(C(=O)N2CCCCCC2)Sc2ccccc21)N1CCN(c2ccccn2)CC1 (stereo not drawn)	650
O=C(Cc1csc2nc(-c3ccccc3)cn12)NCc1ccc(Br)cc1	815
COc1ccc(NC(=O)Cn2c(=O)n(-c3ccccc3)c3ncccc32)c(OC)c1	808
Cc1occc1C(=O)N[C@@H]1CN(c2ncccn2)C[C@H]1CO	597
CCOC(=O)C(C(=O)N1CCN(C)CC1)C1CCCCC1 (stereo not drawn)	629
CCN1CCC2(CC1)CC(c1nnc(C)o1)N(CCc1ccccc1)C2 (stereo not drawn)	550
CCCn1cc(C(=O)Nc2ccc(F)cc2)c(S(=O)(=O)N2CCSCC2)n1	1030
CCc1cc(=O)n(CC(=O)Nc2cccc(Cl)c2C)c(N2CCOCC2)n1	771
CCCn1nc(CNC(=O)CNC(C)=O)c2ccccc21	632
O=C(Nc1ccc(Cl)cc1)N1CCc2nc[nH]c2C1	594
O=C(c1ccc(CS(=O)c2ccccc2)o1)N1CCN(c2ccccn2)CC1 (stereo not drawn)	560
COc1ccc(OC)c(CNC(=O)c2ccc(-c3cncnc3)nc2)c1	700
O=C(CN1C(=O)C(C(=O)N2CCCC2)Sc2ccccc21)Nc1ccc(F)cc1 (stereo not drawn)	978
CN1C(=O)C(CC(=O)Nc2ccccc2)=C2CCCCC21 (stereo not drawn)	758
O=C(c1ccsc1)N1CCOc2ccc(N3CCOCC3)cc2C1	701
O=C(c1cnn2cccnc12)N1CCCC1c1cccc(F)c1 (stereo not drawn)	754
Cc1nc(-c2ccccc2)sc1C(=O)NCCNC(=O)c1ccc(NC(=O)C2CC2)cc1	705
O=c1c(S(=O)(=O)N2CCCC2)cccn1Cc1cccc(F)c1	823
CCCCNC(=O)C1CCCN(C(=O)c2[nH]c(C)cc2C)C1 (stereo not drawn)	691
Cc1ccc(-c2csc(NC(=O)C(C)(C)C)n2)cc1	1080
COC(=O)CCc1c(C)nc2c(c(-c3cccs3)nn2C2CCS(=O)(=O)C2)c1C (stereo not drawn)	850
COc1cccc(CNC(=O)C2(C)CCN(C(=O)NCC3CCCO3)CC2)c1 (stereo not drawn)	668

SMILES	RP-LC retention time [s]
CC(C)n1c(N2CCN(C(=O)c3ccc(F)c(F)c3)CC2)cc(=O)n(C(C)C)c1=O	867
Cc1csc(C(=O)Nc2ccc(CC(=O)N3CCC(O)CC3)cc2)c1	635
COc1ccc(OC)c(S(=O)(=O)N2CCC(N3C[C@H](OC)[C@@H]3c3cccnc3)CC2)c1	619
CCCN1C(=O)C(NC(=O)c2ccc(F)cc2)(C(F)(F)F)C2=C1CC(C)(C)CC2=O (stereo not drawn)	952
COc1cc(NS(=O)(=O)c2c(C)sc(C)c2-c2cc(C(F)(F)F)on2)cc(OC)c1	1140
CC(=O)N1CCc2cc(N3CC(C(=O)Nc4cccc(OC(F)(F)F)c4)CC3=O)ccc21 (stereo not drawn)	806
O=C1CN(C(=O)Cc2ccccc2Cl)C2(CCCC2)CN1	727
COc1ccc(C2C(=O)N(CCc3ccccc3)CC(=O)N2Cc2cccs2)cc1 (stereo not drawn)	964
Cc1ccc(S(=O)(=O)N2CCC(CCNC(=O)NC(C)C)CC2)cc1	796
CC(C)N1C(=O)c2cccnc2Sc2cc(NC(=O)C(C)(C)C)ccc21	828
CCOC(=O)c1c(C)[nH]c(C)c1S(=O)(=O)N1CCC(C(=O)Nc2ccc(NC(C)=O)cc2)CC1	666
COc1ccc(-c2nc(NCCC(C)C)c3ccccc3n2)cc1	844
COC(=O)C1=CN(c2cc(F)ccc2C)c2ccc(F)cc2S1(=O)=O	898
CCOC(=O)c1c(C)oc2ncnc(Nc3cc(Cl)ccc3OC)c12	1360
COc1cccc(CC(=O)N2CCC(C(=O)NCc3csc(-c4cccs4)n3)CC2)c1	774
COCc1noc(C2CN(C(=O)CC(F)(F)F)CC23CCCC3)n1 (stereo not drawn)	798
Cc1oc(C2CCN(S(=O)(=O)c3ccccc3F)CC2)nc1C(=O)N(C)C	781
O=C(c1ccc(CN2C(=O)CCn3nc(-c4ccccc4)cc32)cc1)N1CCN(c2ccccn2)CC1	638
CC(C)C(=O)Nc1ccc(-n2cnc(C(=O)NC3CCCCCC3)c2)nc1	806
COC(=O)c1ccccc1NC(=O)CCn1c(=O)oc2ccccc21	825
O=C(Cc1csc(SCC(=O)c2ccccc2)n1)Nc1cccc2nsnc12	981
